Assay results: patent US5180711A, “Combined treatment with GnRH antagonist and GnRH to control gonadotropin levels in mammals” (Applied Research Systems ARS Holding N.V., priority 1990, dated 1993)
Where a SMILES comes first, the peptide text is derived from it. [ ]: non-standard residue; d: D form. The star is where a group is joined. dPhe(4-Cl) = N[C@H](Cc1ccc(Cl)cc1)C(=O)O; d2Nal = N[C@H](Cc1ccc2ccccc2c1)C(=O)O; Lys(iPr) = CC(C)NCCCC[C@H](N)C(=O)O; d3Pal = N[C@H](Cc1cccnc1)C(=O)O; Nicotinoyl = O=C(c1cccnc1)*

Tests used:
[1] = Antide concentrations in daily blood samples (Example 2); type: in vivo, cynomolgus monkeys; settings: regimen A: four daily injections of 10 mg/kg sc; test period >40 days
Description: (§1) Normally cycling cynomolgus monkeys were studied in one of two regimens. Regimen A comprised a series of initial large loading doses of Antide (10 mg/kg, sc), with no further Antide administration. […] In each regimen GnRH replacement was initiated 4 days after the first Antide injection at a rate of 5 μg/pulse, with one 1 min pulse/hour. The amplitude was subsequently raised to 10 μg/pulse after approximately 21 days. Daily blood samples were drawn for later determination of estradiol, progesterone and Antide concentrations.

[2] = system: endogenous gonadotropin secretion (LH, FSH); assay: Inhibition of endogenous gonadotropin secretion by Antide and response to pulsatile GnRH replacement in ovariectomized monkeys (Example 1); type: in vivo, cynomolgus monkeys; settings: Antide-suppressed monkeys; GnRH 5 μg/pulse, 1 pulse/hour, from day 17; day after initiation
Description: Three long-term ovariectomized cynomolgus monkeys fitted with indwelling jugular vein canulae were utilized for this study. Daily blood samples were drawn under ketamine-induced anesthesia (10 mg/kg, I.M.), for 90 days. On study days 11-16 Antide (3 mg/kg, in propylene/glycol:water, 1:1) was administered via subcutaneous injection. GnRH replacement therapy (5 μg/pulse, 1 pulse/hour given over 1 min, via a Pulsamat infusion pump) was initiated on day 17 and continued for one week then withheld for one week, then reinitiated for one week in a 7 day on, 7 day off regimen for a total of four exposures.

[3] = system: ovulation; estradiol and progesterone concentrations; assay: Ovulation induction by pulsatile GnRH replacement during Antide suppression of endogenous cycles (Example 2); type: in vivo, cynomolgus monkeys
Description: A second experiment was performed to establish that pulsatile GnRH replacement therapy would induce ovulation in the face of antagonist-induced suppression of endogenous cycles.
as §1

[4] = system: tonic gonadotropin (FSH/LH) levels; settings: ovariectomized monkeys treated with Antide; cited from earlier work

With `CC(=O)N[C@H](Cc1ccc2ccccc2c1)C(=O)N[C@H](Cc1ccc(Cl)cc1)C(=O)N[C@H](Cc1cccnc1)C(=O)N[C@@H](CO)C(=O)N[C@@H](CCCCNC(=O)c1cccnc1)C(=O)N[C@H](CCCCNC(=O)c1cccnc1)C(=O)N[C@@H](CC(C)C)C(=O)N[C@@H](CCCCNC(C)C)C(=O)N1CCC[C@H]1C(=O)N[C@H](C)C(N)=O` [Antide, N--Ac--D--2--Nal--D--pClPhe--D--3---Pal--Ser--NicLys--D--NicLys--Leu--ILys--Pro--D--Ala--NH2] (Ac-[d2Nal][dPhe(4-Cl)][d3Pal]SK(Nicotinoyl)[dK](Nicotinoyl)L[Lys(iPr)]P[dA]-NH2) as the compound, how does the “concentration of Antide, always remaining above, throughout test period” value [1] read?
The value was “above 15 ng/ml”.

Which “gonadotropin concentrations during GnRH replacement therapy” value [2] does the source give for “gonadotropin releasing hormone (QHWSYGLRPG; Gonadoliberin-1; UniProt P01148 24-33, looked up) [GnRH]” here?
The value was “greater than 100 ng/ml”.

What about the “E2 response, ovulation and luteal P4” value ([3]; regimen A, GnRH restarted at 10 μg/pulse) of the same compound?
Its value is “rapid and sustained elevation of E2 concentrations culminating in ovulation and normal luteal phase P4 (progesterone) concentrations”.

And the “E2 response to initial pulsatile GnRH replacement” value ([3]; regimen B, GnRH 5 μg/pulse)?
The value was “elevations of E2 to those characteristic of the late follicular phase”.

And the “E2 response, ovulation and luteal P4” value ([3]; regimen B, GnRH increased to 10 μg/pulse)?
Its value is “rapid rise in E2 concentrations to normal preovulatory levels culminating in ovulation with subsequent normal luteal P4 production”.

And the “gonadotropin response to a large i.v. bolus of GnRH” value [4]?
The value was “transient increase in gonadotropin levels which subsequently fell back to the inhibited state”.
